Data on nine compounds can be found in patent US20060063766A1, “Use of aryl- and heteroaryl-substituted tetrahydroisoquinolines to block reuptake of norepinephrine, dopamine, and serotonin” (priority 2004, published 2006).

The target of one data set is dopamine transporter (Homo sapiens, UniProt Q01959). The conditions noted are these: cited from earlier work.
Data set [1] concerns tetrabenazine-induced exploratory loss and ptosis in mice. As to the kind of experiment: Tetrabenazine assay. The conditions noted are these: mouse; result in words.
The target in another data set is T1, DAT (Homo sapiens, UniProt Q01959).
T1 construct: cDNAs containing the complete coding regions of each transporter were amplified by PCR from human brain libraries; expressed in transfected cells; host or cells: HEK293E
T1 sequence (Q01959 whole entry): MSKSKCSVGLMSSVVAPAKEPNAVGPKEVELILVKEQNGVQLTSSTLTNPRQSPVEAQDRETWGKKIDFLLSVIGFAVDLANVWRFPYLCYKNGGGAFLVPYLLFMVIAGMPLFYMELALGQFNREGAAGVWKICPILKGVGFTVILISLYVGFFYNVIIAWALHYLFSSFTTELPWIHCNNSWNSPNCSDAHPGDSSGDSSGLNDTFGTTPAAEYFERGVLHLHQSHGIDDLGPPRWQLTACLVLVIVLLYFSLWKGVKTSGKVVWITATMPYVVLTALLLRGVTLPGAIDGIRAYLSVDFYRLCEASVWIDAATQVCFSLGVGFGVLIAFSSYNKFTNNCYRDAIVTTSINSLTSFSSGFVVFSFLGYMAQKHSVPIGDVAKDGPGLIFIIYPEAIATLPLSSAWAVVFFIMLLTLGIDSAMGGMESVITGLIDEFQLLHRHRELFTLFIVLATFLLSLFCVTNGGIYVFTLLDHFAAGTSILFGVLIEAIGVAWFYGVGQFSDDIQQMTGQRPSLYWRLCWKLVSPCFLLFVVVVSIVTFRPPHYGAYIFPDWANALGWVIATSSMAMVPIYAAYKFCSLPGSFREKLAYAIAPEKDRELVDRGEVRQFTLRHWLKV
Briefly: biochemical. Type of data set: binding.

The next data set deals with SERT (Homo sapiens, UniProt P31645). As to the kind of experiment: biochemical.
Sequence of SERT (P31645 whole entry): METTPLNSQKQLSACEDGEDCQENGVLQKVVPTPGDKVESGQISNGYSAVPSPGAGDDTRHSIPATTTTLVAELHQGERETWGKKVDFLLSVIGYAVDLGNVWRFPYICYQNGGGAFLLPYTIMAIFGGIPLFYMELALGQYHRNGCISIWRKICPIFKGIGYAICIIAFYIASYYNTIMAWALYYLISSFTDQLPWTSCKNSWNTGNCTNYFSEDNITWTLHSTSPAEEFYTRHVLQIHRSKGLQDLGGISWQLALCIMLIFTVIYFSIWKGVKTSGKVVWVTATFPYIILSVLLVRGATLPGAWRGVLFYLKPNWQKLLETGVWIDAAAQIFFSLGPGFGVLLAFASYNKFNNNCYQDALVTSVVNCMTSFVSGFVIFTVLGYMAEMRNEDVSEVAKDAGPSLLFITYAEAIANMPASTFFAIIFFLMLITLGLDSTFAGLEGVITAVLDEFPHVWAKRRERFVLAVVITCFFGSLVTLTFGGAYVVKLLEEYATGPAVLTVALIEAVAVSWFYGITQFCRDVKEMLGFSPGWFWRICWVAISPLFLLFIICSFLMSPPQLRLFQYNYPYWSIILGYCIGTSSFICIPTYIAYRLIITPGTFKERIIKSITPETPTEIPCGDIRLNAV
The conditions of data set [2]: in a very small number of patients; cited from earlier work.

The structures appear in SMILES notation. Where a name gives a salt, the structure may show the parent alone.

Sequence of dopamine transporter (Q01959 whole entry): as the sequence (Q01959 whole entry) above

In the case of `CNCC[C@@H](Oc1ccccc1C)c1ccccc1` [atomoxetine], at dopamine transporter, the “activity at the dopamine transporter” value is on record as “little or no activity”.

As to `CN1Cc2c(N)cccc2C(c2ccccc2)C1` (stereo not drawn) [Nomifensine], the “biological activity in the tetrabenazine in vivo assay” value in data set [1] was “potent biological activity”.

With `CN1Cc2cc(-c3cncnc3)ccc2C(c2cc3ccccc3s2)C1` (racemic) [Example 73, (±)-4-(benzo[b]thiophen-2-yl)-2-methyl-7-(pyrimidin-5-yl)-1,2,3,4-tetrahydroisoquinoline], the inhibition at 0.1 µM is 39% at DAT (read-out: % inhibition at 100 nM concentration of test compound, DAT) and 93% on SERT (read-out: % inhibition at 100 nM concentration of test compound, SERT).

On to `CN1Cc2ccccc2C(c2cc(Cl)c3[nH]ncc3c2)C1` (single isomer, unassigned; (-)) [Example 125, (−)-4-(7-chloro-1H-indazol-5-yl)-2-methyl-1,2,3,4-tetrahydoisoquinoline, maleate salt], for which the values for the Ki at DAT and on SERT were 11.5 nM and 21.3 nM, respectively.

As to `Cc1csc(C2CN(C)Cc3ccccc32)c1` (racemic) [4-methyl-thiophen-2-yl, reference compound], the Ki was found to be 2250 nM on DAT and 3170 nM on SERT.

`CN1Cc2c(N)cccc2C(c2ccccc2)C1` (stereo not drawn) [Nomifensine®]: the “serious side effect of long term administration” value in data set [2] is reported as “fatal immune hemolytic anemia”.

For `COC(=O)C(c1ccccc1)C1CCCCN1` (stereo not drawn) [Ritalin], the “biological activity in the tetrabenazine in vivo assay” value in data set [1] is given as “potent activity”.

Take `CN1Cc2ccccc2C(c2cccs2)C1` (racemic) [thiophen-2-yl, reference compound]: the values for the Ki on DAT and on SERT were 5990 nM and 2450 nM, respectively.

With `CN1Cc2ccccc2C(c2ccc3sncc3c2)C1.O=C(O)/C=C\C(=O)O` (single isomer, unassigned; (+)) [Example 135, (+)-4-benzo[d]isothiazol-5-yl-2-methyl-1,2,3,4-tetrahydroisoquinoline, maleate salt], the melting point was 145 to 147 °C. The same compound displayed an inhibitory constant (Ki) on DAT of 79.4 nM. At SERT, this compound displayed a Ki of 10.4 nM.

A word on the Ki: it is the equilibrium dissociation constant of an inhibitor or competing ligand from its target. For orientation: melting point means the temperature of the solid-liquid transition.
